# Key:
# P. mirabilis [1] = assay: MIC determination, broth microdilution in Cation-Adjusted Mueller-Hinton broth (CLSI); type: cell-based, Proteus mirabilis; details: strain Pmir
# Procedure: (§1) Determination of MIC values were performed using the reference technique (broth microdilution in Cation-Adjusted Mueller-Hinton broth) according to the CLSI guidelines. Polymyxin B and colistin (Sigma-Aldrich, Saint-Louis) were tested over a range dilution from 0.12 to 128 µg/ml and 5.10^5 CFU/ml of bacteria in each well was used. Following the EUCAST breakpoints (http://www.eucast.org/), strains with a colistin MICs of ≤ 2 µg/ml were categorized as susceptible, although those with MICs of > 2 µg/ml were resistant.
# (§2) All experiments were repeated in triplicate.
# C. freundii = assay: as above; type: cell-based; details: for Colistin resistance: EUCAST breakpoints
# Procedure: as §1, §2
# E. aerogenes = assay: as above; type: cell-based; details: strain 6 FR
# Procedure: as §1, §2
# E. cloacae = assay: as above; type: cell-based; details: for Colistin resistance: EUCAST breakpoints
# Procedure: as §1, §2
# H. alvei = assay: as above; type: cell-based; details: strain ER
# Procedure: as §1, §2
# K. oxytoca = assay: as above; type: cell-based; details: strain C24
# Procedure: as §1, §2
# M. morganii = assay: as above; type: cell-based; details: strain Mmor
# Procedure: as §1, §2
# P. stuartii = assay: as above; type: cell-based; details: strain Pstu
# Procedure: as §1, §2
# K. pneumoniae = assay: as above; type: cell-based, Klebsiella pneumoniae; details: for Colistin resistance: EUCAST breakpoints
# Procedure: as §1, §2
# P. mirabilis [2] = assay: Polymyxin test: colorimetric detection of growth (glucose metabolization, phenol red) in presence of colistin sulphate; type: cell-based, Proteus mirabilis; design: key: +, yellow; -, orange; details: strain Pmir; colistin sulphate 3.75 mg/L final; visual colour change, up to 4 h at 37°C
# Procedure: (§3) Each inoculum was prepared by mixing 1 öse (10 µl) of a fresh culture of the tested bacteria in 5 ml of sterile NaCl 0.85% (at a density of 3 Mac Farland, i.e. about 10^9 CFU/ml).
# (§4) 250 ml of reactive medium was prepared by mixing the compounds hereafter: • a broth powder of a non selective growth medium for bacteria, the Cation-Adjusted Mueller-Hinton broth (MHB-CA) : 6.25 g • a colour indicator, the phenol red : 0.0125 g • sterile distilled water 225 ml • sterile D (+)-glucose (10 %) anhydrous (sterilization by filtration) : 25 ml
# (§5) The pH of the final reactive medium was adjusted to 6.6 and 6.7 with HCl 1M.
# (§6) Colistin or polymyxin B was added or not at the concentration of 5 mg/L in the reactive medium. Standard colistin sulphate and polymyxin B were from Sigma Aldrich (Saint-Louis, France). Those antibiotic molecule powders were kept at 4°C before their use, whereas polymyxin dilutions were kept at -20°C.
# (§7) For each strain, two wells of a plastic sterile plate with 96 shaped wells were inoculated in parallel with and without polymyxin (colistin sulphate or polymyxin B) in order to compare their colour change.
# (§8) Plastic sterile plates were from Sarstedt (Nümbrecht, Germany). The tray may be prepared as follows : • 1. […]
# (§9) The results of the tests were recorded at 10 min (checking for no spontaneous colour change in the well) and then every hour for a maximum of 4 hours by visual inspection. […]
# S. marcescens = assay: as above; type: cell-based, Serratia marcescens; design: key: +, yellow; -, orange; details: strain Smar; colistin sulphate 3.75 mg/L final; visual colour change, up to 4 h at 37°C
# Procedure: as §3, §4, §5, §6, §7, §8, §9
# E. coli = assay: as above; type: cell-based, Escherichia coli; design: key: +, yellow; -, orange; details: colistin sulphate 3.75 mg/L final, visual colour change, up to 4 h at 37°C
# Procedure: as §3, §4, §5, §6, §7
# Plastic sterile plates were from Sarstedt (Nümbrecht, Germany). The tray may be prepared as follows : • 1. 150 µl of reactive medium colistin free (obtained in 1.) in the first line • 2. 150 µl of reactive medium with 5 mg/l of colistin sulphate in the second line (final concentration = 3.75 mg/l) • 3. 50 µl of NaCl alone in the first column (one well colistin-free and one well with colistin sulphate) (medium control) • 4. 50 µl of the bacterial suspension (obtained in 2.) for the control strains and for every strain in the other column (one well colistin-free and one well with colistin)
# After mixing of the bacterial suspension to the reactive medium by pipetting up and down, the final concentration of bacteria was 2.5.10^8 CFU/ml in each well and the final selective concentration of colistin or polymyxin B in the well with polymyxin was 3.75 mg/L.
# The results of the tests were recorded at 10 min (checking for no spontaneous colour change in the well) and then every hour for a maximum of 4 hours by visual inspection. No colour change of the well with colistin sulphate or polymyxin B indicated susceptibility to colistin sulphate or polymyxin B and negativity of those tests. On the contrary, a colour change (orange to yellow) indicates the positivity of the test meaning growth capability (related to glucose metabolism) in presence of colistin sulphate or polymyxin B, i.e. resistance to colistin sulphate or polymyxin B.
# as §2
substance,measurement,setting,value
colistin sulphate,Colistin resistance,P. mirabilis [1]; EUCAST breakpoints,+ (those with MICs of > 2 µg/ml were resistant)
same,Colistin MIC,P. mirabilis [1]; Natural resistance,>128 µg/mL
same,Colistin MIC,C. freundii; strain 8 FR,0.12 µg/mL
same,Colistin resistance,C. freundii; strain 8 FR,- (strains with a colistin MICs of ≤ 2 µg/ml were categorized as susceptible)
same,Colistin MIC,C. freundii; strain C136,0.12 µg/mL
same,Colistin resistance,C. freundii; strain C136,- (strains with a colistin MICs of ≤ 2 µg/ml were categorized as susceptible)
same,Colistin MIC,E. aerogenes,0.12 µg/mL
same,Colistin resistance,E. aerogenes; EUCAST breakpoints,- (strains with a colistin MICs of ≤ 2 µg/ml were categorized as susceptible)
same,Colistin MIC,E. cloacae; strain 7 FR,0.12 µg/mL
same,Colistin resistance,E. cloacae; strain 7 FR,- (strains with a colistin MICs of ≤ 2 µg/ml were categorized as susceptible)
same,Colistin resistance,E. cloacae; strain C28,+ (those with MICs of > 2 µg/ml were resistant)
same,Colistin MIC,"E. cloacae; strain C28, resistance mechanism Unknown",32 µg/mL
same,Colistin MIC,E. cloacae; strain C129,0.25 µg/mL
same,Colistin resistance,E. cloacae; strain C129,- (strains with a colistin MICs of ≤ 2 µg/ml were categorized as susceptible)
same,Colistin MIC,E. cloacae; strain C144,0.25 µg/mL
same,Colistin resistance,E. cloacae; strain C144,- (strains with a colistin MICs of ≤ 2 µg/ml were categorized as susceptible)
same,Colistin resistance,E. cloacae; strain HM,+ (those with MICs of > 2 µg/ml were resistant)
same,Colistin MIC,"E. cloacae; strain HM, resistance mechanism Unknown",>128 µg/mL
same,Colistin resistance,H. alvei; EUCAST breakpoints,+ (those with MICs of > 2 µg/ml were resistant)
same,Colistin MIC,H. alvei; resistance mechanism Unknown,16 µg/mL
same,Colistin resistance,K. oxytoca; EUCAST breakpoints,+ (those with MICs of > 2 µg/ml were resistant)
same,Colistin MIC,K. oxytoca; mgrB promotor truncated with ISKpn26-like,64 µg/mL
same,Colistin resistance,M. morganii; EUCAST breakpoints,+ (those with MICs of > 2 µg/ml were resistant)
same,Colistin MIC,M. morganii; Natural resistance,>128 µg/mL
same,Colistin resistance,P. stuartii; EUCAST breakpoints,+ (those with MICs of > 2 µg/ml were resistant)
same,Colistin MIC,P. stuartii; Natural resistance,>128 µg/mL
same,Colistin MIC,K. pneumoniae; strain 1 FR,0.12 µg/mL
same,Colistin resistance,K. pneumoniae; strain 1 FR,- (strains with a colistin MICs of ≤ 2 µg/ml were categorized as susceptible)
same,Colistin MIC,K. pneumoniae; strain 2 FR,0.12 µg/mL
same,Colistin resistance,K. pneumoniae; strain 2 FR,- (strains with a colistin MICs of ≤ 2 µg/ml were categorized as susceptible)
same,Colistin MIC,K. pneumoniae; strain 4 FR,0.25 µg/mL
same,Colistin resistance,K. pneumoniae; strain 4 FR,- (strains with a colistin MICs of ≤ 2 µg/ml were categorized as susceptible)
same,Colistin MIC,K. pneumoniae; strain 9 FR,0.5 µg/mL
same,Colistin resistance,K. pneumoniae; strain 9 FR,- (strains with a colistin MICs of ≤ 2 µg/ml were categorized as susceptible)
same,Colistin resistance,K. pneumoniae; strain 11 FR,+ (those with MICs of > 2 µg/ml were resistant)
same,Colistin MIC,"K. pneumoniae; strain 11 FR, resistance mechanism Unknown",32 µg/mL
same,Colistin resistance,K. pneumoniae; strain 75b,+ (those with MICs of > 2 µg/ml were resistant)
same,Colistin MIC,"K. pneumoniae; strain 75b, PhoP D191Y",128 µg/mL
same,Colistin resistance,K. pneumoniae; strain AF1b,+ (those with MICs of > 2 µg/ml were resistant)
same,Colistin MIC,"K. pneumoniae; strain AF1b, PmrB T157P",16 µg/mL
same,Colistin resistance,K. pneumoniae; strain C23,+ (those with MICs of > 2 µg/ml were resistant)
same,Colistin MIC,"K. pneumoniae; strain C23, ΔmgrB",128 µg/mL
same,Colistin resistance,K. pneumoniae; strain C25,+ (those with MICs of > 2 µg/ml were resistant)
same,Colistin MIC,"K. pneumoniae; strain C25, PmrA G53C",64 µg/mL
same,Colistin resistance,K. pneumoniae; strain C26,+ (those with MICs of > 2 µg/ml were resistant)
same,Colistin MIC,"K. pneumoniae; strain C26, mgrB gene truncated with IS",128 µg/mL
same,Colistin resistance,K. pneumoniae; strain C27,+ (those with MICs of > 2 µg/ml were resistant)
same,Colistin MIC,"K. pneumoniae; strain C27, mgrB Δnt23/33 (frameshift)",>128 µg/mL
same,Colistin MIC,K. pneumoniae; strain C112,0.12 µg/mL
same,Colistin resistance,K. pneumoniae; strain C112,- (strains with a colistin MICs of ≤ 2 µg/ml were categorized as susceptible)
same,Colistin MIC,K. pneumoniae; strain C115,0.12 µg/mL
same,Colistin resistance,K. pneumoniae; strain C115,- (strains with a colistin MICs of ≤ 2 µg/ml were categorized as susceptible)
same,Colistin MIC,K. pneumoniae; strain C130,0.12 µg/mL
same,Colistin resistance,K. pneumoniae; strain C130,- (strains with a colistin MICs of ≤ 2 µg/ml were categorized as susceptible)
same,Colistin MIC,K. pneumoniae; strain C132,0.12 µg/mL
same,Colistin resistance,K. pneumoniae; strain C132,- (strains with a colistin MICs of ≤ 2 µg/ml were categorized as susceptible)
same,Colistin resistance,K. pneumoniae; strain T1b,+ (those with MICs of > 2 µg/ml were resistant)
same,Colistin MIC,"K. pneumoniae; strain T1b, mgrB gene truncated with IS5-like",128 µg/mL
same,Results of the method of the invention,P. mirabilis [2],+
same,Results of the method of the invention,S. marcescens,+
same,Results of the method of the invention,E. coli; strain 3 FR,-
same,Results of the method of the invention,E. coli; strain 5 FR,-
same,Results of the method of the invention,E. coli; strain 10 FR,-
same,Results of the method of the invention,E. coli; strain 27563,+
same,Results of the method of the invention,E. coli; strain 27837,+
same,Results of the method of the invention,E. coli; strain 27850,+
same,Results of the method of the invention,E. coli; strain 27852,+
same,Results of the method of the invention,E. coli; strain 30742,+
same,Results of the method of the invention,E. coli; strain ATCC 25922,-
same,Results of the method of the invention,E. coli; strain C140,-
same,Results of the method of the invention,E. coli; strain Top10,-

# Reference: EP3070175A1, “TEST FOR DETERMINING SUSCEPTIBILITY OR RESISTANCE TO POLYMYXINS IN ENTEROBACTERIACEAE” (Université de Fribourg, priority 2015, dated 2016)
